Source: patent US10730886B2, “Compound having effect of inhibiting platelet aggregation and salt thereof, and composition for preventing or treating thrombotic diseases, containing same” (SHIN POONG PHARMACEUTICAL CO., LTD., priority 2015, dated 2020)
Where two headings read alike, the source gives them in different places.

Experiments:
[1] = tested on: human liver cells (HepG2); assay: Cytotoxicity in human liver cells HepG2 (WST-1); format: cell-based; conditions: HepG2, 40 mM, control
Description: 5-3. Evaluation of Cytotoxicity of Candidate Substances Using Human Liver Cells
Experiments were conducted to evaluate cytotoxicity in human liver cells (HepG2). HepG2 cells, which are human liver carcinoma cell lines, were cultured in DMEM (Dulbecco's minimum essential medium) supplemented with 10% FBS (fetal bovine serum) and 1% Penicillin/Streptomycin at 37° C. and 5% CO2. The cells were cultured in a 48 well plate at 4×10^4 cells/well for 24 hours and then used in the experiments. The HepG2 cells were treated with the candidate substances (250 μM) for 18 hours, and then the medium was removed and WST-1 was added, followed by shading for 3 hours for reaction. After 3 hours, the supernatant was taken and absorbance was measured at 450 nm. Cell viability was calculated by comparing the absorbance measured after adding WST-1 to HepG2 cells not treated with the candidate substances. Acetaminophen (40 mM) was used as a control.

[2] = tested on: carotid artery shear stress model; assay: Carotid artery shear stress model, amount of thrombus; format: in vivo, Sprague-Dawley rats; conditions: rat, twice a day for 3 days after operation
Description: Vehicle (0.5% methylcellulose), clopidogrel (8 mg/kg), aspirin (50 mg/kg) or a candidate substance was orally administered to male Sprague-Dawley rats (250 to 300 g). 2 hours after administration, the rats were anesthetized by ketamine/rompun (ketamine/xylazine) cocktail 0.1 ml/100 g. Except for the normal control group, the right cervical skin of the experimental animals was incised to expose the common carotid artery. A surgical tube with a length of 1 mm and an inside diameter of 0.58 mm was inserted into the exposed carotid artery and tied with a single thread. The exposed site and the operation site were treated with an anti-adhesion agent, and then sutured for the animals to recover. After the surgery, vehicle, clopidogrel, aspirin or a candidate substance was orally administered to the rats twice a day for 3 days. On the fourth day, 2 hours after the final administration, urethane (100 mg/300 μl/100 g) was administered intraperitoneally to the rats to induce anesthesia, and the operation site was opened to separate a total of 1 cm of the blood vessel, 5 mm above and 5 mm below the surgical tube. The separated blood vessel was perfused with 0.2 ml of 0.9% saline at 0.3 ml/min to remove the remaining blood, and then maintained in 1 ml of protein lysis buffer (NaOH 2 g, Na2CO3 0.1 g in 500 ml D.W). After collected, the blood vessel thrombus was double-boiled in boiling water together with the protein lysis buffer. 200 μl of the reaction solution (10 ml bicinchoninic acid solution+200 μl 4% aqueous solution of copper sulfate) was added to 10 μl of the heated thrombus, and the mixture was reacted at 37° C. for 30 minutes and quantified with an ELISA reader (562 nm).

Sprague-Dawley rats = assay: Bleeding side effect (tail bleeding time) after single oral administration; format: in vivo; conditions: rat, tail cut 1 hour after administration
Description: Male Sprague-Dawley rats (250 to 300 g) were fasted overnight and then were orally administered with the candidate substances at each concentration. After 1 hour, the rats were anesthetized by intraperitoneal injection of urethane (1.25 g/kg). The 3 mm portion of the tail tip of the rats was cut and carefully wiped every 30 seconds. Bleeding time was measured in […] until no more blood was drawn, and when the bleeding lasted longer than 30 minutes, the bleeding time was recorded as 30 minutes.

ICR mouse = conditions: male, in vivo, po, 7 days
Description: One hour after the last administration, the mice were anesthetized by breathing, and the 4 mm portion from the tail tip of the mice was cut. Then, the tail tip of the mice was immersed in a transparent 15-ml tube containing the pre-prepared 37° C. saline. The time when blood was not spread any more and the bleeding stopped was measured.

[3] = tested on: ADP-induced platelet aggregation, Human PRP; assay: ADP-induced platelet aggregation in human PRP (lumi-aggregometer); format: cell-based
Description: To investigate whether the candidate substance has inhibition selectivity for shear-stress-induced platelet aggregation, which is by a physical stimulus, […] experiment was conducted by activating platelets with physiological agonists—i.e., thrombin, collagen and ADP—to study the inhibitory effect of the candidate substance.
Human PRP (598.8 μl) was treated with 1.2 μl of the candidate substance per concentration (25, 100, 250 μM) and reacted at 37° C. for 3 minutes using a thermomixer. Then, PRP (495 μl) was put in the aggregometer cuvette and preincubated for 1 minute, followed by treatment with platelet aggregation-inducing reagent, thrombin (0.6-0.8 U/ml), collagen (2-5 μg/ml), or ADP (adenosine diphosphate, 15-20 μM) at the minimum concentration causing maximum aggregation. The degree of aggregation of the platelets was measured by a turbidity change using a lumi-aggregometer (Chrono-Log Co., USA). The turbidity of the PRP was considered as 0%, and the turbidity of the PPP was considered as 100%. During the measurement, the reaction mixture was continuously stirred at 1,000 rpm with a silicone-coated magnetic stir bar.

[4] = tested on: Human Platelet Rich Plasma (PRP); assay: Shear stress-induced platelet aggregation inhibition in human platelet rich plasma (PRP), cone-plate viscometer; format: cell-based; conditions: Homo sapiens, Platelet, Table 1 summary bins; concentration and matrix not given; read-out: Inhibitory effect of shear stress-induced platelet aggregation
Description: 1-1. Measurement of Platelet Aggregation Inhibitory Effect Using Human Platelet Rich Plasma (PRP)
Blood was collected from the veins of healthy male volunteers who had not taken any medication for more than 2 weeks. All related studies were conducted under the approval of the Seoul National University Institutional Review Board (IRB No. 1305/001-016). During the whole process of study the use of glass containers or glass pipettes was avoided, and the experiments were performed at room temperature. To separate platelet rich plasma (PRP), the blood was collected with 3.2% sodium citrate as an anticoagulant. The whole blood was centrifuged at 150 g for 15 minutes to obtain the supernatant (PRP), and the residue was centrifuged at 2,000 g for 20 minutes to obtain platelet poor plasma (PPP). The number of platelets of the PRP thus obtained was counted with an optical microscope using a hemacytometer. PRP was diluted with PPP so as to include 3×10^8 platelets per 1 ml, and then used in the experiments. PRP was put on a cone-plate viscometer (RotoVisco 1, Thermo Fischer Scientific, USA), and shear stress was applied to the PRP at 37° C. for 3 minutes at a shear rate of 10,800 s^−1. In order to evaluate candidate substances, prior to the induction of platelet aggregation, 598.8 μl of PRP was treated with 1.2 μl of 25 μM candidate substance and incubated at 37° C. for 3 minutes using a thermomixer. After applying the shear stress, 20 μl of PRP was fixed in 280 μl of a suspension buffer containing 0.5% glutaraldehyde (134 mM NaCl, 2.9 mM KCl, 1.0 mM MgCl2.6H2O, 10.0 mM HEPES, 5.0 mM dextrose, 12.0 mM NaHCO3, 0.34 mM Na2HPO4, 0.3% BSA, pH 7.4). Then, the number of single platelets in the suspension was counted using a hemacytometer. The degree of inhibition by the candidate substance was calculated according to the following formula (1). The degree of inhibition was determined by the method described below. No shear stress-applied group served as a control, and only shear stress-applied group served as positive control. Degree of inhibition (%)=[(1−A/B)×100]/[(1−A/C)×100] Formula 1
A: Number of single platelets in the shear stress-applied sample after treatment with candidate substance
B: Number of single platelets in the control group with no shear stress applied
C: Number of single platelets in the positive control group with only shear stress applied

SMILES	inhibition at 25 µM [4]	further results
CC(=O)Nc1ccc(O)cc1 [Acetaminophen, reference compound]	–	Cell vaibility (%) [1]: 35.3 ± 3.5%
CC(=O)Oc1ccccc1C(=O)O [Aspirin, aspirin, reference compound]	–	Amount of thrombus (mg, Mean ± SEM) ([2]; 50 mg/kg oral): 0.092 ± 0.007 mg; Bleeding time (Sprague-Dawley rats; 25 μM (so in the source)): 9.5 ± 0.8 min; Bleeding time (Sprague-Dawley rats; 100 μM (so in the source)): 15.1 ± 0.8 min; Bleeding time (ICR mouse; 100 mg/kg): 12.3 ± 0.7 min; Bleeding time (min) (ICR mouse; 100 mg/kg): exceeded 12 min; bleeding time delayed, times compared with the control group (ICR mouse; 100 mg/kg): about 7.6 times
COC(=O)[C@H](c1ccccc1Cl)N1CCc2sccc2C1 [Clopidogrel, clopidogrel, reference compound]	–	Amount of thrombus (mg, Mean ± SEM) ([2]; 8 mg/kg oral): 0.067 ± 0.004 mg; Bleeding time (Sprague-Dawley rats; 2.5 μM (so in the source)): 14.3 ± 1.6 min; Bleeding time (Sprague-Dawley rats; 25 μM (so in the source)): 26.8 ± 1.6 min; Degree of platelet aggregation (%, Mean ± SEM) ([3]; ADP 15-20 μM, compound 40 μM): 18.3 ± 3.4%; platelet aggregation compared with the group treated with ADP only ([3]; positive control, 40 μM): platelet aggregation was inhibited; Bleeding time (ICR mouse; 15 mg/kg): 35.4 ± 2.9 min; Bleeding time (min) (ICR mouse; 15 mg/kg): exceeded 35 min; bleeding time delayed, times compared with the control group (ICR mouse; 15 mg/kg): about 22 times
O=C(c1ccc(O)c(O)c1)N1CCC(c2noc3ccc(F)cc23)CC1 [Example 2, (3,4-Dihydroxyphenyl)(4-(5-fluorobenzo[d]isoxazol-3-yl)piperidin-1-yl)methanone]	20 to 30%	–
O=C(NCC1CN(Cc2ccc(F)cc2)CCO1)c1ccc(O)c(O)c1 (stereo not shown) [Example 3, N-((4-(4-Fluorobenzyl)morpholin-2-yl)methyl)-3,4-dihydroxybenzamide]	≥ 30%	–
O=C(NC1CCSC1=O)c1ccc(O)c(O)c1 (stereo not shown) [Example 4, 3,4-Dihydroxy-N-(2-oxotetrahydrothiophen-3-yl)benzamide]	≥ 30%	–
O=C(NCCCCCCCCCNC(=O)c1ccc(O)c(O)c1)c1ccc(O)c(O)c1 [Example 5, N,N′-(Nonan-1,9-diyl)bis(3,4-dihydroxybenzamide)]	20 to 30%	–
O=C(c1ccc(O)c(O)c1)N1CCC(OC(c2ccc(Cl)cc2)c2ccccn2)CC1 (stereo not shown) [Example 6, (4-((4-Chlorophenyl)(pyridin-2-yl)methoxy)piperidin-1-yl)(3,4-dihydroxyphenyl)methanone]	20 to 30%	–
O=C(c1ccc(O)c(O)c1)N1CCC(O[C@@H](c2ccc(Cl)cc2)c2ccccn2)CC1 [Example 7, (S)-(4-((4-Chlorophenyl)(pyridin-2-yl)methoxy)piperidin-1-yl)(3,4-dihydroxyphenyl)methanone]	20 to 30%	–
COC(=O)[C@H](Cc1c[nH]c2ccccc12)NC(=O)c1ccc(O)c(O)c1 [Example 8, (S)-Methyl-2-(3,4-dihydroxybenzamido)-3-(1H-indol-3-yl)propanoate]	20 to 30%	–
CCCc1nn(C)c(C(N)=O)c1NC(=O)c1ccc(O)c(O)c1 [Example 9, 4-(3,4-Dihydroxybenzamido)-1-methyl-3-propyl-1H-pyrazole-5-carboxamide]	20 to 30%	–
Cc1occc(=O)c1OC(=O)c1ccc(O)c(O)c1 [Example 10, 2-Methyl-4-oxo-4H-pyran-3-yl 3,4-dihydroxybenzoate]	20 to 30%	–
O=C(c1ccc(O)c(O)c1)N1CCN(c2ccccc2)CC1 [Example 11, (3,4-Dihydroxyphenyl)(4-phenylpiperazin-1-yl)methanone]	≥ 30%	–
C#Cc1cccc(NC(=O)c2ccc(O)c(OC)c2)c1 [Example 16, N-(3-Ethynylphenyl)-4-hydroxy-3-methoxybenzamide]	≥ 30%	–
CNC(=O)c1cc(Oc2ccc(NC(=O)c3ccc(O)c(OC)c3)cc2)ccn1 [Example 17, 4-(4-(4-Hydroxy-3-methoxybenzamido)phenoxy)-N-methylpicolinamide]	20 to 30%	–
COc1cc(C(=O)N2CCC(OC(c3ccc(Cl)cc3)c3ccccn3)CC2)ccc1O (stereo not shown) [Example 18]	≥ 30%	–
COc1cc(C(=O)NCc2c(CO)cnc(C)c2O)ccc1O [Example 19, 4-Hydroxy-N-((3-hydroxy-5-(hydroxymethyl)-2-methylpyridin-4-yl)methyl)-3-methoxybenzamide]	20 to 30%	–
O=C(c1cc(O)ccc1O)N1CCC(OC(c2ccc(Cl)cc2)c2ccccn2)CC1 (stereo not shown) [Example 21, (4-((4-Chlorophenyl)(pyridin-2-yl)methoxy)piperidin-1-yl)(2,5-dihydroxyphenyl)methanone]	20 to 30%	–
O=C(NCC1CN(Cc2ccc(F)cc2)CCO1)c1cc(O)ccc1O (stereo not shown) [Example 22, N-((4-(4-Fluorobenzyl)morpholin-2-yl)methyl)-2,5-dihydroxybenzamide]	≥ 30%	–
COc1ccc(CCNC(=O)c2cc(O)ccc2O)cc1OC [Example 24, N-(3,4-Dimethoxyphenethyl)-2,5-dihydroxybenzamide]	20 to 30%	–
O=C(NCCc1cccs1)c1cc(O)ccc1O [Example 25, 2,5-Dihydroxy-N-(2-(thiophen-2-yl)ethyl)benzamide]	20 to 30%	–
O=C(NC1CCSC1=O)c1cc(O)ccc1O (stereo not shown) [Example 26, 2,5-Dihydroxy-N-(2-oxotetrahydrothiophen-3-yl)benzamide]	20 to 30%	–
